Source: patent US8871772B2, “Therapeutic methods and compounds” (Ampio Pharmaceuticals, Inc., priority 2008, dated 2014)

Experiments:
Type in all cases: cell-based
Akt = Akt phosphorylation in AU565 breast cancer cells, CASE ELISA (S473); details: Homo sapiens, IGF-1 stimulated; for inhibition at 50 µM: AU565, 50 μM
Protocol: Assays were performed to determine the effect of Cpd. 5 (synthesis described in Example 1) on phosphorylation of Akt in the AU565 breast cancer cell line. Akt (or protein kinase B, PKB) is a serine/threonine kinase that promotes cellular survival. Akt is activated in response to many different growth factors, including IGF-1, EGF, bFGF, insulin, interleukin-3 (IL-3), IL-6, heregulin and VEGF. Akt has three isoforms, and activation of all three isoforms is similar in that phosphorylation of two sites is necessary for full activity. Once activated, Akt exerts anti-apoptotic effects through phosphorylation of substrates that directly or indirectly regulate apoptosis. Activation of the phosphatidylinositol 3 kinase (PI3K)/Akt signaling pathway contributes to tumorigenesis in many types of tissues, including breast, ovarian, brain, prostate and lymph tissues.
AU565 cells were grown in 75 cm^2 flasks using Iscove's modified Dulbecco's medium (IMDM; obtained from Lonza) supplemented with 10% fetal bovine serum (FBS, HyClone) and 1% penicillin/streptomycin solution (Lonza). Cells were removed from the flasks using trypsin/EDTA (Lonza) and counted using trypan blue to establish cell counts. […]
Following this incubation, 100 μl of serum-free IMDM containing either 0 or 400 ng/ml insulin-like growth factor-1 (IGF-1) (obtained from Sigma), an Akt phosphorylation promoter, were added, and the plates incubated at 37° C., 5% CO2, for 1 more hour. At the end of this time, the cells were fixed immediately with 4% formaldehyde, refrigerated, and the extent of phosphorylation of Akt determined using the Akt Cellular Activation of Signaling ELISA (CASE™ Kit for AKT […]; SABiosciences, Frederick, Md.) following the manufacturer's protocols. The CASE™ Kit for AKT S473 quantifies the amount of activated (phosphorylated) Akt protein relative to total Akt protein in parallel assays using a conventional ELISA format with colorimetric detection. […] Both primary antibodies are detected using a horseradish peroxidase-labeled secondary antibody. […]
The results were calculated as follows. […]

[1] = system: U-118 metastatic astrocytoma cell line; experiment: Proliferation of U-118 cancer cells, Promega cell titer assay
Protocol: Assays were performed to determine the effect of Cpd. 5 on proliferation of an additional cancer cell line. This cell line was the U-118 metastatic astrocytoma cell line. It was obtained from ATCC.
To perform the assays, a 50 mM stock solution of Cpd. 5 was prepared in DMSO and frozen at −80° C. […] Controls containing equivalent amounts of DMSO to the 300 μM solution were mixed for comparative purposes. 100 μl of the resulting solutions were then added to 96 well culture plates in triplicate and placed in a 37° C. incubator with 5% CO2 to warm.
Cells were removed from passage flasks using trypsin and ethylenediaminetetracetic acid (EDTA) and counted using trypan blue to establish cell counts/ml and viability. For all experiments, viability of cells was greater than 95%. Solutions of 4,000 cells/100 μl were prepared in the medium from above, and 100 μl of the solutions were added to each well of the plates. The plates were placed back in the incubator and incubated with the compounds for 96 hours.
Following incubation, cell proliferation was assayed by adding 20 μl Promega cell titer aqueous one reagent to each well. Promega cell titer reagent is a solution containing a tetrazolium dye that is reduced by living cells to a formazan dye, and this reduction is proportional to the number of living cells present in the well. The plates were incubated at 37° C. for an additional 4 hours to allow the colorimetric assay to develop, and the OD of each well was determined in a microplate reader using a 530 nm filter. The OD of wells containing cell titer reagent in culture medium with no cells was subtracted from the OD of all experimental readings.
The % decrease of the total cell titer signal was determined using the following formula. ((Diluent OD−Experimental OD)/Diluent OD))×100. Data are presented in Table 5 as mean % decrease of cell titer signal of three separate experiments, plus or minus standard deviation. In the mean % decrease column, a positive number means a decrease in cell titer signal, while a negative number means an increase in cell titer signal. The p values were calculated versus diluent controls.
The above experiment was repeated using the U-118 cells at 3000 cells/well.

WM-266-4 cells = experiment: Proliferation of WM-266-4 cells (separate experiment); details: concentration not given
Description: As shown there, Cpd. […] It should also be noted that, in a separate experiment, Cpd.

| Structure (SMILES) | inhibition at 10 µM (Akt; AU565, 10 μM) [%] | inhibition at 50 µM (Akt) [%] | MEAN % DECREASE of cell titer signal ([1]; U-118, 3000 cells/well, 25 μM final) [%] | MEAN % DECREASE of cell titer signal ([1]; U-118, 3000 cells/well, 37.5 μM final) [%] | MEAN % DECREASE of cell titer signal ([1]; U-118, 3000 cells/well, 50 μM final) [%] | MEAN % DECREASE of cell titer signal ([1]; U-118, 3000 cells/well, 75 μM final) [%] | MEAN % DECREASE of cell titer signal ([1]; U-118, 3000 cells/well, 100 μM final) [%] | MEAN % DECREASE of cell titer signal ([1]; U-118, 3000 cells/well, 150 μM final) [%] | MEAN % DECREASE of cell titer signal ([1]; U-118, 4,000 cells/well, 25 μM final, 96 hours) [%] | MEAN % DECREASE of cell titer signal ([1]; U-118, 4,000 cells/well, 37.5 μM final, 96 hours) [%] | MEAN % DECREASE of cell titer signal ([1]; U-118, 4,000 cells/well, 50 μM final, 96 hours) [%] | MEAN % DECREASE of cell titer signal ([1]; U-118, 4,000 cells/well, 75 μM final, 96 hours) [%] | MEAN % DECREASE of cell titer signal ([1]; U-118, 4,000 cells/well, 100 μM final, 96 hours) [%] | MEAN % DECREASE of cell titer signal ([1]; U-118, 4,000 cells/well, 150 μM final, 96 hours) [%] | inhibition of the proliferation of WM-266-4 cells (WM-266-4 cells) | MEAN % DECREASE of cell titer signal ([1]; U-118, 3000 cells/well, 40 μM final) [%] | MEAN % DECREASE of cell titer signal ([1]; U-118, 4,000 cells/well, 20 μM final, 96 hours) [%] |
| --- | --- | --- | --- | --- | --- | --- | --- | --- | --- | --- | --- | --- | --- | --- | --- | --- | --- |
| COC(=O)C(c1ccc(-c2ccccc2)cc1)C1NC(=O)CNC1=O (stereo not shown) [Cpd. 5, biphenyl-4-yl-(3,6-dioxo-piperazin-2-yl)-acetic acid methyl ester] | 104 | 92 | −25.28 | −25.28 | −15.63 | −3.05 | 20.51 | 59.70 | −50.62 | −46.50 | −7.82 | 4.11 | 25.93 | 65.84 | did not inhibit | – | – |
| O=c1cc(N2CCOCC2)oc2c(-c3ccccc3)cccc12 [LY294002, reference compound] | – | 92.4 | – | – | – | – | – | – | – | – | – | – | – | – | 105% | 86.04 | 19.75 |
